Assay results: US11780851B2, “LRRK2 inhibitors” (H. Lundbeck A/S, priority 2021, dated 2023)
Entries after “also recorded” stand apart in the source; their conditions may differ. Where two headings read alike, the source gives them in different places.

Tests used:
GSH adduct screening = type: in vitro ADME, human; settings: 1 μM, 3 h at 37° C., HLM 0.5 mg/mL, NADPH, with and without GSH
Method: Test compounds (final concentration 1 μM, 0.25% organic) were incubated for 3 h at 37° C. in commercially sourced, pooled donor, human liver microsomes (HLM, final concentration 0.5 mg/mL) with and without addition of glutathione (GSH; final concentration […]). The metabolic reaction was initiated by addition of microsomal solution to the mixture of cofactor NADPH (final concentration 1 mM), test compound and GSH. After 3 h of incubation in a water bath at 37° C., the reaction was stopped by addition of 0.2% formic acid in acetonitrile, followed by mixing and centrifugation (16000 g for 5 minutes). Supernatant was diluted (1:1) with HPLC water then analyzed by liquid chromatography (LC)-quadrupole time-of-flight mass spectrometry (QTOF-MS). Accurate mass MS and MS/MS spectra from samples with GSH and without GSH, respectively, were compared to identify detectable GSH and/or cysteine related adducts.

[1] = Hepatocyte intrinsic clearance assay; type: in vitro ADME, human; settings: human, pooled donor, cryopreserved hepatocytes, pH 7.4, 0.1 μM, 2 h at 37° C., 1×10^6 hepatocytes/mL; * measured on 3 separate occasions, ** on a single occasion
Method: Test compounds (final concentration 0.1 μM, 0.05% organic) were incubated for 2 h at 37° C., with shaking, in supplemented Leibovitz L-15 media (pH7.4) containing commercially sourced, pooled donor, cryopreserved hepatocytes (final concentration 1×10^6 hepatocytes/m L). The CLint reactions (350 μL) were initiated by addition of test compound. Aliquots (25 μL) were taken at 1, 5, 10, 15, 30, 60, 90 and 120 minutes and then protein crashed with ice-cold acetonitrile containing internal standard (150 μL) then centrifuged (1960 g for 20 minutes at 4° C.). Supernatant was diluted (1:4) with deionized water then analyzed by liquid chromatography (LC)-tandem mass spectrometry (MS/MS). The intrinsic clearances (CLint) were calculated from the slope (k) of the linear regressions of percentages of compound remaining in incubation against incubation time, according to equations 2 and 3.

LRRK2 G2019S = target: T1, LRRK2 G2019S (Homo sapiens, UniProt Q5S007, G2019S); test: LRRK2 G2019S kinase activity assay (LanthaScreen TR-FRET); type: biochemical; settings: 250 pM LRRK2 G2019S, 1.3 mM ATP, 3 h at 30° C.; n≥2 tests
T1 construct: purchased Invitrogen (Life Technologies Corporation)
How it was run: (§1)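 TR-FRET measured phosphorylation of fluorescein-ERM LRRKtide by human LRRK2 residues 970–2527, wild-type or G2019S, detected with a terbium anti-phospho-LRRKtide antibody. The 520/495 nm ratio was normalized to uninhibited and inhibitor controls. IC50 came from a Hill fit, log-averaged over independent experiments.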

[2] = Rat B/P (brain disposition); type: in vivo, male Sprague-Dawley rats; settings: male, Sprague-Dawley; for concentration at 1 h / Kp uu at 1 h / Kp at 1 h: time point 1.0 h; for concentration at 1 h / Kp at 1 h / concentration at 0.5 h / Kp at 0.5 h: mean ± stdev; for Kp uu at 1 h / Kp at 1 h / Kp uu at 0.5 h / Kp at 0.5 h: brain/plasma; for Kp uu at 1 h / Kp uu at 0.5 h: fubrain from brain homogenate; for Kp at 1 h / Kp at 0.5 h: n = 3; for concentration at 0.5 h / Kp uu at 0.5 h / Kp at 0.5 h: time point 0.5 h
Method: Brain disposition was evaluated for each compound in male Sprague-Dawley rats (n=3, standard body weight). […] Isolated plasma and brain homogenates were extracted by standard protein precipitation in acetonitrile, containing internal standard, followed by LC-MS/MS analysis using an optimized analytical method. Concentrations of test compound in plasma and brain were quantified against matrix matched calibration standards. The total plasma and brain concentration data are presented in Table 7 alongside the calculated brain Kp (total brain concentration:total plasma concentration ratio).

LRRK2 WT = target: T2, LRRK2 WT (Homo sapiens, UniProt Q5S007); test: LRRK2 wild-type kinase activity assay (LanthaScreen TR-FRET); type: biochemical; settings: 1 nM LRRK2 WT, 1.3 mM ATP, 3.5 h at 30° C.; n≥2 tests
T2 construct: comprises residue 970 to 2527 of the full length human wild-type LRRK2 kinase; purchased Invitrogen (Life Technologies Corporation)
How it was run: as §1

[3] = Free fraction in plasma (equilibrium dialysis); type: in vitro ADME, male Sprague-Dawley rat; settings: rat plasma, 1 μM, 5 h at 37° C.
Method: The free fractions in male Sprague-Dawley rat or female Gottingen minipig plasma (fuplasma) and rat brain homogenate (fubrain) were determined by equilibrium dialysis using 96-well HTD-dialysis plates with dialysis membranes (molecular weight cut off 12-14 KDa). One side of the HTD-dialysis plate was loaded with matrix (plasma or brain homogenate) and the other side with buffer (100 mM sodium phosphate buffer, pH 7.4). Test compounds were dissolved in DMSO then spiked (5 μL of 0.2 mM) into blank (995 μL) plasma or diluted brain homogenate (1:4 ratio in phosphate buffer) giving a final nominal concentration 1 μM (≤0.5% DMSO). The matrices were loaded into respective chambers and equilibrated against phosphate buffer for 5 h at 37° C. (in a humidified air incubator with 5% CO2 with shaking). Samples from both chambers (buffer and plasma or brain homogenate) were aliquoted to fresh 96-well polypropylene plates then matrix matched using an equal volume of opposite blank matrix before extraction with cold solvent (3 volumes acetonitrile) containing an appropriate bioanalytical internal standard. After centrifugation (20 min, 3200 g, 4° C.) the supernatants were diluted with appropriate volumes of water and compound concentrations were quantified by LC/MS-MS against matrix matched calibration standards. The fuplasma and fubrain were calculated as a percent free according to equation 4 below.
Where [F] is the analyte concentration on the buffer (receiver) side of the membrane; [T] is the analyte concentration on the plasma or brain (donor) side of the membrane; [TO] is the analyte concentration in the plasma or brain sample at time zero; D is matrix dilution factor which is determined as 4 for brain matrix and 1 for plasma matrix in these assays.

[4] = brain, oral gavage 10 mg/kg, n = 3, read-out: Total brain concentration
[5] = plasma, oral gavage 10 mg/kg, n = 3, read-out: Total plasma concentration

T1 sequence (Q5S007 970-2527 G2019S): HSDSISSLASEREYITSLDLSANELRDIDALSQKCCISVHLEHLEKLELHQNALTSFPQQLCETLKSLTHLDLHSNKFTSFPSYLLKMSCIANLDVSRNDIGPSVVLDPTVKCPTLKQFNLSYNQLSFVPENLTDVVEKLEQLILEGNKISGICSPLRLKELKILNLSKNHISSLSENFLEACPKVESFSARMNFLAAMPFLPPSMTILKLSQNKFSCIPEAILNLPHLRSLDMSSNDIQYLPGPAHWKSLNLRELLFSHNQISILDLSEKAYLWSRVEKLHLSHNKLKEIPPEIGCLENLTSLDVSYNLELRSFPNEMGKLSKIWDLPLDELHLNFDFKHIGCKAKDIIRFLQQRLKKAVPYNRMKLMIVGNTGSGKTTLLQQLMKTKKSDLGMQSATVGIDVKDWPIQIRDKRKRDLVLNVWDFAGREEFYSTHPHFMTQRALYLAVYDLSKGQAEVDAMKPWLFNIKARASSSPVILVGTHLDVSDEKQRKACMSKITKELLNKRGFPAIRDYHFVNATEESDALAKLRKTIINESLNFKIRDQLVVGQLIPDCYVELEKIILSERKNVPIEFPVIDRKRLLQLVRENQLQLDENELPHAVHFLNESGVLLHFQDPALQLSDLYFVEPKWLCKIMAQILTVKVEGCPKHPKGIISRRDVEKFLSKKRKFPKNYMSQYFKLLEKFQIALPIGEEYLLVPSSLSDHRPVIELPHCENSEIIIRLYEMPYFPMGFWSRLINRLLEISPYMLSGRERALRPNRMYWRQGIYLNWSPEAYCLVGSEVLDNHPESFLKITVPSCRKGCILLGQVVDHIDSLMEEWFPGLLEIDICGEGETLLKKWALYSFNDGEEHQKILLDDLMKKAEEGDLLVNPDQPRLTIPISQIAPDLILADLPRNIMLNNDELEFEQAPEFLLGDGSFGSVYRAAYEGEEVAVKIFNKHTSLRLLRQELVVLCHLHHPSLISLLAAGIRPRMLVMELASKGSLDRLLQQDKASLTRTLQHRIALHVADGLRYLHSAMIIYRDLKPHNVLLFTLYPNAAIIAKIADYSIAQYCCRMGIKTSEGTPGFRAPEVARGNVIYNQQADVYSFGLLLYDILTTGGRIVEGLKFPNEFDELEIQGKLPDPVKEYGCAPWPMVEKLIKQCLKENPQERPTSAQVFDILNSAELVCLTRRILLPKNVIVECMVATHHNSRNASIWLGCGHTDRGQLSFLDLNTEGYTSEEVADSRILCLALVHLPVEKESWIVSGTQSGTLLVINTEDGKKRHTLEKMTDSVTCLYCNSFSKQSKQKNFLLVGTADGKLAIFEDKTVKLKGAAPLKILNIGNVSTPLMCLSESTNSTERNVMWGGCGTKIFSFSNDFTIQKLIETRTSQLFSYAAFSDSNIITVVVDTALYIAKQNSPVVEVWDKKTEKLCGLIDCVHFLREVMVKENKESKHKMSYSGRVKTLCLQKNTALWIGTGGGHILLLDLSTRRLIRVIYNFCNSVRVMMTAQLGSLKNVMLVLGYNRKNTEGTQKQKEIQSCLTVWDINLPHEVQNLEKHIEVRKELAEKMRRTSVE
T2 sequence (Q5S007 970-2527): as the sequence (Q5S007 970-2527 G2019S) above, with S1050G counted along it

Compound: Cc1c2c(nn1[C@@H]1CCO[C@H](C)C1)OCCCn1nc(Cl)c3cnc(nc31)N2 (single isomer, unassigned) [Example 18]
- Adduct detected in GSH supplemented HLMs (GSH adduct screening): +GSH
- CLint scaled at 0.1 μM [1]: < 4 mL/min/kg
- IC50 (LRRK2 G2019S): 3.6 nM
- concentration at 1 h [2, 4]: 897 ± 292 ng/g
- Kp uu at 1 h ([2]; oral gavage 10 mg/kg): 0.35 ± 0.05
- Kp at 1 h ([2]; oral gavage 10 mg/kg): 1.47 ± 0.22
- concentration at 1 h [2, 5]: 636 ± 265 ng/mL
- IC50 (LRRK2 WT): 11 nM
- fuplasma (% free) [3]: 25.0 % free

Compound: Cc1c2c(nn1[C@H]1CCCCOC1)OCCCn1nc(Cl)c3cnc(nc31)N2 (single isomer, unassigned) [Example 27, (−)-(R) or (S)-8-Chloro-3-methyl-2-(oxepan-3-yl)-2,4,12,13-tetrahydro-11H-5,7-(azenometheno)dipyrazolo[3,4-b:5′,1′-g][1]oxa[4,6,8]triazacycloundecine]
- CLint scaled at 0.1 μM [1]: 9.5 mL/min/kg
- IC50 (LRRK2 G2019S): 7.3 nM
- concentration at 1 h ([2]; brain, oral gavage 5 mg/kg, n = 3, read-out: Total brain concentration): 443 ± 50 ng/g
- Kp uu at 1 h ([2]; oral gavage 5 mg/kg): 0.52 ± 0.01
- Kp at 1 h ([2]; oral gavage 5 mg/kg): 1.63 ± 0.03
- concentration at 1 h ([2]; plasma, oral gavage 5 mg/kg, n = 3, read-out: Total plasma concentration): 273 ± 36 ng/mL
- IC50 (LRRK2 WT): 25 nM
- fuplasma (% free) [3]: 19.9 % free

Compound: Cc1c2c(nn1[C@@H]1CCOC[C@H]1F)OCCCn1nc(Cl)c3cnc(nc31)N2 (single isomer, unassigned) [Example 31, (−)-8-Chloro-2-((3S,4R) or (3R,4S)-3-fluorotetrahydro-2H-pyran-4-yl)-3-methyl-2,4,12,13-tetrahydro-11H-5,7-(azenometheno)dipyrazolo[3,4-b:5′,1′-g][1]oxa[4,6,8]triazacycloundecine]
- CLint scaled at 0.1 μM [1]: < 4.17 mL/min/kg
- IC50 (LRRK2 G2019S): 2.4 nM
- concentration at 1 h [2, 4]: 215 ± 70 ng/g
- Kp uu at 1 h ([2]; oral gavage 10 mg/kg): 0.5 ± 0.04
- Kp at 1 h ([2]; oral gavage 10 mg/kg): 1.65 ± 0.13
- concentration at 1 h [2, 5]: 133 ± 54 ng/mL
- IC50 (LRRK2 WT): 5.6 nM
- fuplasma (% free) [3]: 24.9 % free

Compound: Cc1c2c(nn1[C@H]1CCOC(C)(C)C1)OCCCn1nc(Cl)c3cnc(nc31)N2 (single isomer, unassigned) [Example 42, (+)-(R) or (S)-8-Chloro-2-(2,2-dimethyltetrahydro-2H-pyran-4-yl)-3-methyl-2,4,12,13-tetrahydro-11H-5,7-(azenometheno)dipyrazolo[3,4-b:5′,1′-g][1]oxa[4,6,8]triazacycloundecine]
- CLint scaled at 0.1 μM [1]: 6.33 mL/min/kg
- IC50 (LRRK2 G2019S): 2.9 nM
- concentration at 0.5 h [2, 4]: 550 ± 283 ng/g
- Kp uu at 0.5 h ([2]; oral gavage 10 mg/kg): 0.32 ± 0.05
- Kp at 0.5 h ([2]; oral gavage 10 mg/kg): 1.88 ± 0.31
- concentration at 0.5 h [2, 5]: 295 ± 145 ng/mL
- IC50 (LRRK2 WT): 7.9 nM
- fuplasma (% free) [3]: 21.7 % free

Compound: [2H]C([2H])([2H])c1c2c(nn1[C@H]1CCO[C@@H](C)C1)OCCCn1nc(Cl)c3cnc(nc31)N2 (single isomer, unassigned) [Example 51, (+)-8-Chloro-3-(methyl-d3)-2-((2R,4R) or (2S,4S)-2-methyltetrahydro-2H-pyran-4-yl)-2,4,12,13-tetrahydro-11H-5,7-(azenometheno)dipyrazolo[3,4-b:5′,1′-g][1]oxa[4,6,8]triazacycloundecine]
- Adduct detected in GSH supplemented HLMs (GSH adduct screening): +GSH
- CLint scaled at 0.1 μM [1]: < 4 mL/min/kg
- IC50 (LRRK2 G2019S): 5.3 nM
- IC50 (LRRK2 WT): 9 nM

Compound: Cc1c2c(nn1C1CCOCC1)OCCCn1nc(Cl)c3cnc(nc31)N2 [Example 2, 8-Chloro-3-methyl-2-(tetrahydro-2H-pyran-4-yl)-2,4,12,13-tetrahydro-11H-5,7-(azenometheno)dipyrazolo[3,4-b:5′,1′-g][1]oxa[4,6,8]triazacycloundecine]
- Adduct detected in GSH supplemented HLMs (GSH adduct screening): +GSH
- CLint scaled at 0.1 μM [1]: 14.2 mL/min/kg

Compound: CCc1c2c(nn1C1CCOCC1)OCCCn1nc(Cl)c3cnc(nc31)N2 [Example 17, 8-Chloro-3-ethyl-2-(tetrahydro-2H-pyran-4-yl)-2,4,12,13-tetrahydro-11H-5,7-(azenometheno)dipyrazolo[3,4-b:5′,1′-g][1]oxa[4,6,8]triazacycloundecine]
- Adduct detected in GSH supplemented HLMs (GSH adduct screening): did not form GSH adduct; also recorded: None detected
- CLint scaled at 0.1 μM [1]: 5.67 mL/min/kg
- IC50 (LRRK2 G2019S): 5.8 nM
- concentration at 1 h [2, 4]: 1150 ± 59 ng/g
- Kp at 1 h ([2]; oral gavage 10 mg/kg): 1.76 ± 0.08
- Kp uu at 1 h ([2]; po, 10 mg/kg, oral gavage 10 mg/kg): 0.59 ± 0.03
- concentration at 1 h [2, 5]: 653 ± 52 ng/mL
- IC50 (LRRK2 WT): 15 nM
- fuplasma (% free) [3]: 27.5 % free

Compound: Cc1c2c(nn1[C@H]1C[C@@H](C)O[C@@H](C)C1)OCCCn1nc(Cl)c3cnc(nc31)N2 [Example 41, 8-chloro-2-((2R,4r,6S)-2,6-dimethyltetrahydro-2H-pyran-4-yl)-3-methyl-2,4,12,13-tetrahydro-11H-5,7-(azenometheno)dipyrazolo[3,4-b:5′,1′-g][1]oxa[4,6,8]triazacycloundecine]
- CLint scaled at 0.1 μM [1]: 5.67 mL/min/kg
- IC50 (LRRK2 G2019S): 6.4 nM
- concentration at 0.5 h [2, 4]: 620 ± 30 ng/g
- Kp at 0.5 h ([2]; oral gavage 10 mg/kg): 2.5 ± 0.31
- concentration at 0.5 h [2, 5]: 250 ± 24 ng/mL
- IC50 (LRRK2 WT): 17 nM
- fuplasma (% free) [3]: 25.2 % free

Compound: Cc1c2c(nn1[C@@H]1C[C@H]3CC[C@@H](C1)O3)OCCCn1nc(Cl)c3cnc(nc31)N2 [Example 44, 2-((1R,3s,5S)-8-Oxabicyclo[3.2.1]octan-3-yl)-8-chloro-3-methyl-2,4,12,13-tetrahydro-11H-5,7-(azenometheno)dipyrazolo[3,4-b:5′,1′-g][1]oxa[4,6,8]triazacycloundecine]
- CLint scaled at 0.1 μM [1]: < 4 mL/min/kg
- IC50 (LRRK2 G2019S): 4.3 nM
- concentration at 0.5 h [2, 4]: 731 ± 223 ng/g
- Kp uu at 0.5 h ([2]; oral gavage 10 mg/kg): 0.3 ± 0.04
- Kp at 0.5 h ([2]; oral gavage 10 mg/kg): 1.56 ± 0.23
- concentration at 0.5 h [2, 5]: 468 ± 117 ng/mL
- IC50 (LRRK2 WT): 13 nM
- fuplasma (% free) [3]: 25.5 % free

Compound: [2H]C([2H])([2H])c1c2c(nn1[C@H]1CC[C@H](OC)CC1)OCCCn1nc(Cl)c3cnc(nc31)N2 [Example 50]
- Adduct detected in GSH supplemented HLMs (GSH adduct screening): did not form GSH adduct; also recorded: None detected
- CLint scaled at 0.1 μM [1]: < 4 mL/min/kg
- IC50 (LRRK2 G2019S): 5.3 nM
- IC50 (LRRK2 WT): 10 nM
